Experiments:
[1] = Comparative maximum aqueous solubility study (ICP-OES); format: physicochemical; conditions: doubly deionized water, 24 h shaking, ambient 18–20°C, mean ± SD of N = 3
Method: One to five milligrams of FY26⋅PF6 or FY26⋅I, and 180 mg of FY26⋅Cl were dispensed into Falcon tubes in triplicates, then 1 ml of doubly deionized water (DDIW) was added. The Falcon tubes were placed on a Vibrax VXB basic shaker (Sigma-Aldrich, Dorset, UK) for 24 h at a speed of […] (ambient temperature 18–20°C), and were checked at intervals (further solids were added if total saturation appeared to occur). The samples were filtered through syringe filters (PTFE, 0.45 µm, 4 mm) to remove any undissolved solids. The concentrations of Os in the solutions were measured using inductively coupled plasma-optical emission spectroscopy (ICP-OES) (Agilent, Stockport, UK).
Analyses of FY26 solutions were carried out on a Perkin-Elmer (optical emission spectrometer) Optima 5300 DV instrument. All samples and standards were prepared fresh on the day in DDIW with distilled HNO3 (3.2%), thiourea (5 mM), and ascorbic acid (0.1 g/l). The osmium standard was diluted to the following concentrations for the calibration curve: 0, 25, 50, 100, 200, 400, 600, 800, and 1000 ppb. The samples were diluted by serial dilutions of typically 1 in 10 until their concentrations fitted within the calibration range and % total dissolved solids were below 0.2%. Samples were prepared in triplicates and the Os optical emissions at 228.226 and 225.585 nm were detected and integrated.

[2] = tested on: A2780 ovarian cancer cells; experiment: In vitro growth inhibition assay (SRB), A2780; format: cell-based; conditions: A2780, 24 h exposure, 72 h recovery
Method: Dulbecco's modified Eagle's medium (DMEM) cell culture media, penicillin/streptomycin, foetal bovine serum, L-glutamine, phosphate-buffered saline (PBS) solution, and trypsin/EDTA were all purchased from Thermo Fisher (Loughborough, UK). DMEM was supplemented with 10% foetal bovine serum, 1% penicillin/streptomycin, and 2 mM L-glutamine. Cancer cell lines (A2780 and A549) were purchased from the European Collection of Cell Cultures (Salisbury, UK). Cell cultures were grown in T-75 or T-175 culture flasks as adherent monolayers. The cells were passaged two to three times per week whenever confluence reached 80–90%, using 0.25% trypsin/EDTA. Cell cultures were stored in an incubator at 37°C with a 5% CO2 humidified atmosphere.
Five thousand A2780 or A549 cells were seeded per well in 96-well plates. The cells were pre-incubated in drug-free media at 37°C for 48 h before adding a range of concentrations (0.01–100 µM) of the complexes to be tested. Typically, the complex was dissolved in dimethyl sulfoxide (DMSO) at 2 mM concentration, and then diluted with cell culture medium to give a 100 µM stock solution with 5% (v/v) DMSO. […] Absorbance measurements of the solubilized dye (Thermo Scientific Multiskan FC with SkanIt software 4.1 for Windows using a 470 nm filter) allowed the determination of viable treated cells compared to untreated controls. […]

## CN(C)c1ccc(N=Nc2ccccn2)cc1.Cc1ccc(C(C)C)cc1.[Cl-].[I-].[Os+2] [FY26⋅Cl]
[1]
  maximum aqueous solubility: 215 (±10) mM
[2]
  difference in anticancer (antiproliferative) activity between X = Cl and X = PF6: lack of any statistically significant difference

From paper PMC7853623, “Dose- and time-dependent tolerability and efficacy of organo-osmium complex FY26 and its tissue pharmacokinetics in hepatocarcinoma-bearing mice” (Metallomics: Integrated Biometal Science, 2020)
